# Laboratory results published in patent US4585773A, “Isoindolinyl-alkyl-piperazines” (Bristol-Myers Company, priority 1984, dated 1986).
# Read-outs that look alike come from different tables or passages of the source.
# Tests used:
# [1] = background statement; cited from earlier work
# [2] = tested on: Spontaneously Hypertensive rat; settings: Suzuki et al.; cited from earlier work
# [3] = conscious rat diuretic screen of Lipschitz (Table I); assay type: in vivo, rat (female Sprague Dawley; male Okamoto-Aoki); settings: female Sprague Dawley rats; for response vs control in vivo at 3 mg/kg / response vs control in vivo at 30 mg/kg: Rattus norvegicus, po
# Description: With respect to diuretic utility there can be mentioned the conscious rat diuretic screen of Lipschitz, et al. (J. Pharmacol. Exp. Therap. 79, 97-110 (1943)). In this test, dose response assays of diuretic, natruiretic and kaliuretic activity are determined by oral administration of the test substance. The compounds synthesized in Examples I-XI were tested for diuretic […]. The compound of Example I was tested as its monohydrochloride 2-propanolate hydrate, i.e. as C22 […] ClN4 O4 S.HCl. 0.2(CH3)2 CHOH.0.15H2 O. Testing was carried out by the diuretic screen of Lipschitz, et al. described previously. In Table I below Volume Ratio is the ratio of total volume excreted for the test comuound compared to the total volume excreted for the control, Na^+ Ratio is the Na^+ excreted for the test compound compared to the Na^+ excreted for the control, K^+ Ratio is the K^+ excreted for the test compound compared to the K^+ excreted for the control. Female Sprague Dawley rats were used in Test Nos. 1, 2, 6, 7, 11-29. Male Okamoto-Aoki rats were used in Test Nos. 3-5 and 8-10 and testing for antihypertensive activity was carried out simultaneously on the Test Nos. 3-5 rats. In some instances, compounds were retested at the same dose level.
# [4] = tested on: α blocking activity (norepinephrine); experiment: in vivo α blocking activity, norepinephrine (NE) as α-agonist (Table III); design: species or system rat; settings: ED50 after/before drug
# Description: (§1) In this example the compounds of Examples I (modified), II, III, V, VI, VII, VIII, IX and XI were tested in rats for in vivo α blocking activity according to methodology described at page 312 of Deitchman, et al., Journal of Pharmacological Methods, 3, 311-321 (1980). In this test phenylephrine (PE below) or norepinephrine (NE below) was administered as an α-agonist to the rats before and after dosing with the test drug and the average interpolated dose or PE/NE effecting a 50 mm Hg increase in mean arterial blood pressure was determined. Table III below records the results. In such Table, ED50 stands for such average interpolated dose and Average Dose Shift stands for the average ratio of ED50 after drug administration to ED50 before drug administration. The compound of Example I was tested as its monochloride 2-propanolate hydrate, i.e. as C22 H27 ClN4 O4 S.HCl 0.2(CH3)2 CHOH.0.15H2 O in Tests 1-5 and as the 3/4 mole hydrochloride, i.e. C22 H27 ClN 4 O4 S.3/4HCL in Tests 2a and 3a. The route was intravenous except in the case of the runs of Test Nos. 2a, 3, 3a, 26-29 the route was oral.
# [5] = tested on: Spontaneously Hypertensive rat; experiment: antihypertensive activity, Spontaneously Hypertensive Rat (Table II); assay type: in vivo
# Description: Spontaneously Hypertensive Rat Male rats weighing 300-400 g, previously conditioned to the procedure, are prewarmed in a heating chamber (30° C.) for 10-20 min. and subsequently restrained in a wire holder at that temperature. Systolic blood pressure and heart rate are measured by the tailcuff technique using a pneumatic pulse transducer and a biotachometer before, and 2, 4, and 24 hours after oral administration of vehicle (0.25% Methocel in water) or test compounds suspended in vehicle at a dose volume equivalent to 5 ml/kg. Blood pressure and heart rate data are reported as changes from zero-hour measurements with vehicle control groups run periodically to confirm that the vehicle has no effect. Testing was carried out on the compounds of Examples I-XII for antihypertensive activity. In the case of all the compounds testing was carried out on the Spontaneously Hypertensive rat as described hereinbefore. In the case of the compounds of Examples I-IV testing was also carried out on the DOCA-salt Hypertensive Rat. The compound of Example I was tested as its monochloride 2-propanolate hydrate, i.e. as C22 […] ClN4 O4 S.HCl.0.2(CH3)2 CHOH.0.15H2 O in Tests 1-5; and as the 3/4 mole hydrochloride, i.e. C22 […] ClN4 O4 S: 3/4 HCl in Tests 3a, 4a, 5a-5d. Test results are set forth in Table II below wherein SHR stands for Spontaneously Hypertensive rat, DOCA stands for DOCA-salt Hypertensive Rat, ΔBP stands for the change in systolic blood pressure in mm Hg, ΔHR stands for the change in mean heart rate in beats per minute and the times set forth are the times after dosing. A peak change in ΔBP of more than 20 is considered as indicating activity.
# [6] = tested on: α blocking activity (phenylephrine); experiment: in vivo α blocking activity, phenylephrine (PE) as α-agonist (Table III); design: species or system rat; ED50: unit not given beside the values
# Description: as §1
# [7] = diuretic properties compared to prazosin, acute (1-day) and chronic (5-day), conscious rats; assay type: in vivo, rat (female Sprague-Dawley); settings: 3.0 mg/kg, by mouth
# Description: In this Example the compound of Example I as the hydrochloride salt containing 3/4 mol of HCl instead of 1 mol HCl, i.e. […] Studies were conducted with conscious, 150-200 g, female Sprague-Dawley rats (Charles River Labs, Wilmington, MA) using the protocol of Hanson et al., Mineral Elect. Metab., 8: 314-324 (1982). Animals were maintained in stainless steel gang cages in temperature-controlled rooms with a 12-hour light, 12-hour dark cycle and provided Purina Rodent Lab Chow, with water ad libitum. All animals were fasted 18 hours prior to acute (first-day) dosing and water was withheld during the experiment. […] Groups of ten animals (2/cage) were studied. A controlled (non-drug) group comprised of an equal number of animals was included. Test drugs were suspended in 0.25% methocel-saline (0.9% NaCl) and administered orally by stomach intubation at the doses mentioned above. The oral fluid load volume containing the respective drug dose was uniformly maintained at 25 ml/kg; controls received in methocel-saline vehicle only. Urine was collected over a 5-hour period from rats housed in metabolism cages (2 rats per cage); one specimen consisted of the pooled sample collected from each cage. The urine volume (ml) excreted by each pair of rats was measured and electrolyte (Na, K, Cl, Ca, P) concentrations were determined with an AAII Autoanalyzer (Technicon) employing established procedures. At the end of the acute (1-day) phase, each pair of rats was returned to a separate cage (2/cage) and provided both food and water. On the following three days, each animal received its respective drug methocel-saline load via a stomach intubation. On the fifth day (after an 18-hour fast) all rats were again treated and placed in metabolism cages (2 rats/cage) for a 5-hour urine collection (chronic-effect: 5-day).
# [8] = chronic administration (5-days)
structure (smiles),measurement,setting,value
NS(=O)(=O)c1cc2c(cc1Cl)CN(C1CCCCC1)C2=O [chlorexolone],antihypertensive and diuretic activity (in words),[1],diuretic and hypertensive activity
same,effects in the spontaneously hypertensive rat (in words),[2],favorable effects
NS(=O)(=O)c1cc2c(cc1C(F)(F)F)NCNS2(=O)=O [hydroflumethiazide],effects in the spontaneously hypertensive rat (in words),[2],favorable effects
"COc1ccccc1N1CCN(CCCCN2Cc3cc(Cl)c(S(N)(=O)=O)cc3C2=O)CC1 [Example XI, 6-Chloro-2,3-dihydro-2-[4-[4-(2-methoxyphenyl)-1-piperazinyl]butyl]-3-oxo-1H-isoindole-5-sulfonamide]",Urinary Na/K (Test Compound),[3]; 3 mg/kg oral,3.09
same,Urinary Na/K (Test Compound),[3]; 30 mg/kg oral,2.62
same,response vs control in vivo at 3 mg/kg,"[3]; 3 mg/kg oral, read-out: K+ Ratio",111%
same,response vs control in vivo at 3 mg/kg,"[3]; 3 mg/kg oral, read-out: Na+ Ratio",113%
same,response vs control in vivo at 3 mg/kg,"[3]; 3 mg/kg oral, read-out: Volume Ratio",108%
same,response vs control in vivo at 30 mg/kg,"[3]; 30 mg/kg oral, read-out: K+ Ratio",137%
same,response vs control in vivo at 30 mg/kg,"[3]; 30 mg/kg oral, read-out: Na+ Ratio",117%
same,response vs control in vivo at 30 mg/kg,"[3]; 30 mg/kg oral, read-out: Volume Ratio",94%
same,Average Dose Shift,"[4]; dose 0.3, intravenous",5 ± 0.5
same,Average Dose Shift,"[4]; dose 1.0, intravenous",27 ± 28
same,Average Dose Shift,"[4]; dose 3, intravenous",63 ± 19
same,ΔBP 2 hours,"[5]; SHR, 30 mg/kg oral",-94 ± 10 mm Hg
same,ΔBP 4 hours,"[5]; SHR, 30 mg/kg oral",-60 ± 21 mm Hg
same,ΔHR 2 hours,"[5]; SHR, 30 mg/kg oral",-2 ± 8 beats per minute
same,ΔHR 4 hours,"[5]; SHR, 30 mg/kg oral",-22 ± 14 beats per minute
same,antihypertensive effect (in words),"[5]; conclusion from Table II (SHR, and DOCA for Examples I-IV)",good antihypertensive effect without significantly affecting heart rate
same,in vivo α blocking activity (in words),[6]; conclusion from Table III,active as in vivo α blockers
same,ED50,[6]; iv,375
"COc1ccccc1N1CCN(CCCN2Cc3cc(Cl)c(S(N)(=O)=O)cc3C2=O)CC1 [MJ15037-1A, 6-chloro-2,3-dihydro-2-[3-[4-(2-methoxyphenyl)-1-piperazinyl]propyl]-3-oxo-1H-isoindole-5-sulfonamide]",natriuretic/diuretic activity (in words),[7]; acute treatment (1-day),no natriuretic/diuretic activity
same,"chlorouresis, increase over control",[7]; [8],31%
same,"natriuresis, increase over control",[7]; [8],32%
Nc1nc(N)c2nc(-c3ccccc3)c(N)nc2n1 [triamterene],effects in the spontaneously hypertensive rat (in words),[2],favorable effects
"COc1cc2nc(N3CCN(C(=O)c4ccco4)CC3)nc(N)c2cc1OC [Prazosin, prazosin]",antihypertensive and diuretic activity (in words),[1],a very active antihypertensive agent has antidiuretic activity
